Values joined by “and” are separate entries in the source; they are usually repeats but may differ in a detail not shown here. Equal values may be shown once. Numbers after ± are expanded uncertainties.
How the values were obtained:
[1] = 101.33 kPa, Liquid
[2] = xn = mol fraction of the nth substance listed; conditions: 101.33 kPa, Liquid

CN1CCCC1=O [N-methylpyrrolidone]
[1]
Conditions | mass density [kg/m3] | viscosity [mPa·s]
303.15 K | 1023.47 ± 3.2 | 1.554 ± 0.053
313.15 K | 1014.55 ± 3.1 | 1.332 ± 0.046
323.15 K | 1005.66 ± 3 | 1.16 ± 0.04
333.15 K | 996.71 ± 2.9 | 1.022 ± 0.036
343.15 K | 987.75 ± 3 | 0.908 ± 0.032
353.15 K | 978.76 ± 3 | 0.813 ± 0.029

CCCCCCCC [octane] + C=Cc1ccccc1
[2], x2 = 0
Conditions | mass density [kg/m3] | viscosity [mPa·s]
293.15 K | 703.88 ± 3 | 0.534 ± 0.015
298.15 K | 699.83 ± 3.1 | 0.501 ± 0.014
303.15 K | 695.79 ± 3.1 | 0.472 ± 0.014
313.15 K | 687.59 ± 3.2 | 0.422 ± 0.013
323.15 K | 679.34 ± 3.2 | 0.38 ± 0.012
333.15 K | 670.98 ± 3.3 | 0.343 ± 0.011
343.15 K | 662.59 ± 3.4 | 0.314 ± 0.011
353.15 K | 654.05 ± 3.5 | 0.287 ± 0.01
363.15 K | 645.68 ± 3.5 | 0.261 ± 0.01

CCc1ccccc1 [ethylbenzene]
[1]
Conditions | mass density | viscosity [mPa·s]
303.15 K | 859.95 ± 3.6 kg/m3 | 0.598 ± 0.016
313.15 K | 851.14 ± 3.7 kg/m3 | 0.537 ± 0.015
323.15 K | 842.3 ± 3.8 kg/m3 and 842.27 ± 3.8 kg/m3 | 0.483 ± 0.014
333.15 K | 833.34 ± 4 kg/m3 | 0.437 ± 0.013
343.15 K | 824.26 ± 4.1 kg/m3 | 0.397 ± 0.012
353.15 K | 815.18 ± 4.3 kg/m3 | 0.366 ± 0.012

CN1CCCC1=O [N-methylpyrrolidone] + CCc1ccccc1
[2], x2 = 0
Conditions | mass density [kg/m3] | viscosity [mPa·s]
303.15 K | 1023.47 ± 3.2 | 1.554 ± 0.053
313.15 K | 1014.55 ± 3.1 | 1.332 ± 0.046
323.15 K | 1005.66 ± 3 | 1.16 ± 0.04
333.15 K | 996.71 ± 2.9 | 1.022 ± 0.036
343.15 K | 987.75 ± 3 | 0.908 ± 0.032
353.15 K | 978.76 ± 3 | 0.813 ± 0.029

CCc1ccccc1 [ethylbenzene] + O=S1(=O)CCCC1
[2], x1 = 1
Conditions | mass density [kg/m3] | viscosity [mPa·s]
303.15 K | 859.95 ± 3.6 | 0.598 ± 0.016
313.15 K | 851.14 ± 3.7 | 0.537 ± 0.015
323.15 K | 842.27 ± 3.8 | 0.483 ± 0.014
333.15 K | 833.34 ± 4 | 0.437 ± 0.013
343.15 K | 824.26 ± 4.1 | 0.397 ± 0.012
353.15 K | 815.18 ± 4.3 | 0.366 ± 0.012

O=S1(=O)CCCC1 [sulfolane]
[1]
Conditions | mass density [kg/m3] | viscosity [mPa·s]
303.15 K | 1260.8 ± 6.4 | 10.07 ± 0.32
313.15 K | 1251.9 ± 6.3 | 7.808 ± 0.25
323.15 K | 1243.36 ± 6.2 | 6.194 ± 0.2
333.15 K | 1234.62 ± 6 | 5.009 ± 0.17
343.15 K | 1225.92 ± 5.9 | 4.126 ± 0.14
353.15 K | 1216.8 ± 5.8 | 3.44 ± 0.12

C=Cc1ccccc1 [styrene]
[1]
Conditions | mass density [kg/m3] | viscosity [mPa·s]
293.15 K | 906.29 ± 1.4 | 0.749 ± 0.019
298.15 K | 901.86 ± 1.4 | 0.699 ± 0.018
303.15 K | 897.45 ± 1.5 | 0.654 ± 0.017
313.15 K | 888.53 ± 1.6 | 0.577 ± 0.016
323.15 K | 879.62 ± 1.6 | 0.513 ± 0.014
333.15 K | 870.64 ± 1.7 | 0.462 ± 0.013
343.15 K | 861.72 ± 1.8 | 0.419 ± 0.013
353.15 K | 852.68 ± 1.9 | 0.381 ± 0.012
363.15 K | 843.99 ± 1.9 | 0.349 ± 0.011

CCCCCCCC [octane]
[1]
Conditions | mass density [kg/m3] | viscosity [mPa·s]
293.15 K | 703.88 ± 3 | 0.534 ± 0.015
298.15 K | 699.83 ± 3.1 | 0.501 ± 0.014
303.15 K | 695.79 ± 3.1 | 0.472 ± 0.014
313.15 K | 687.59 ± 3.2 | 0.422 ± 0.013
323.15 K | 679.34 ± 3.2 | 0.38 ± 0.012
333.15 K | 670.98 ± 3.3 | 0.343 ± 0.011
343.15 K | 662.59 ± 3.4 | 0.314 ± 0.011
353.15 K | 654.05 ± 3.5 | 0.287 ± 0.01
363.15 K | 645.68 ± 3.5 | 0.261 ± 0.01
